Our source for the IC50 and viability values is patent US5684030A, “2-substituted benzimidazole derivatives” (American Home Products Corporation, priority 1995, dated 1997).

The test system of series [1] is porcine aortic smooth muscle cells. Description: Inhibition of PDGF-stimulated porcine aortic smooth muscle cell proliferation (3H-thymidine). The following applies: Sus scrofa; stimulated with human recombinant PDGF-AB; 24-36 hours at 37° C.; assayed at 1, 10, and 100 μM; read-out: Porcine Smooth Muscle Cell Antiproliferation IC50 or % Inhibition at × Concentration, PDGF. The series is classed as cell-based. The method, then:
(§1) The ability of the compounds of the present invention to inhibit smooth muscle cell proliferation was established using isolated porcine aortic smooth muscle cells in a modification of the procedure of Castellot et al. J. Biol. Chem 257(19) 11256 (1982), as follows:
(§2) Fresh porcine aortas, scrupulously cleansed of fatty tissue, are rinsed in sterile phosphate-buffered saline with 2% antibiotic-antimycotic (100×) liquid (10,000 units of penicillin (base), 10,000 μg of streptomycin (base), and 25 μg of amphotericin B/mL utilizing penicillin G (sodium salt), streptomycin sulfate, and amphotericin B as Fungizone® in 0.85% saline, available from Gibco Laboratories, Grand Island Biological Co., Grand Island, N.Y.). The tissue is then digested in 10-15 mL of an enzyme solution containing collagenase type I, 165 U/mL; elastase type III, 15 U/mL; BSA, 2 mg/mL; and soybean trypsin inhibitor, 0.375 mg/mL, followed by incubation at 37° C. under 5% CO2 atmosphere for 10 to 15 minutes. After this treatment, the outer surface adventitia is removed by peeling with a forceps. The aorta is then longitudinally cut and laid open and the endothelial layer is removed by scraping.
(§3) The medial layer of cells is rinsed in the enzyme solution, and placed in a new 100 mm dish with 10 mL of enzyme solution. The medial layer of cells is minced using a fine pair of scissors and digested for 2-3 hours at 37° C. in 30 mL of fresh enzyme solution. After digestion, the medial tissue is homogenized using a sterile Pasteur pipette with a fire polished tip or an Eppendorf pipetter with a 200-1000 μL sterile pipette tip. The suspension is then centrifuged for 10 minutes at 8000 rpm and the pellet is suspended in 4-6 mL of fresh enzyme solution and plated onto 4-6 100 mm flasks with vented caps. The cells are then allowed to grow to confluence and split using 0.25% trypsin. The cells are evaluated for purity and overall quality using antibody to SMC actin.
(§4) The cells are assayed in early passage (generally passage 3-7) at sub-confluent conditions. Cultures are grown in 16 mm (24 well) multi-well culture dishes in media 199 supplemented with 10% fetal bovine serum and 2% antibiotic/antimycotic. At subconfluence, the cells are placed in a defined serum free, lymphocyte medium (AIM-V; Gibco) for 24-48 hours prior to initiating the experimental protocol.
(§5) The standard test procedure is initiated by addition of the test compound, ^3 H-thymidine and serum or a specific growth factor to the serum deprived synchronized cells. Growth factor and serum stimulations are optimized for each cell type. The test compounds are added to each well at 50 fold dilution (20 μL/well) and the plates are incubated for 24-36 hours at 37° C. in 5% CO2 atmosphere. Test compounds are dissolved in 50% ethanol and assayed at 1, 10, and 100 μM. As a control, RG 50872 (Bilder, G. A.; et al., Am. J. Cell Physiol., 1991; 260: C721) is routinely assayed under the conditions of each cell preparation at a concentration of 5 μM.
(§6) At the completion of the experiment, the plates are placed on ice, washed three times with ice cold PBS and incubated in ice cold 10% trichloroacetic acid (TCA) for 30 minutes to remove acid soluble proteins. […]
(§7) Data is quantitated by subjecting the vials to a scintillation counter, in triplicate, for both control and experimental samples. […] Data is expressed as a percent of control from which IC50 s are determined.

The test system is the same in series [2]. Description: Inhibition of serum-stimulated porcine aortic smooth muscle cell proliferation (3H-thymidine). The series is classed as cell-based. The following applies: Sus scrofa, 24-36 hours at 37° C., assayed at 1, 10, and 100 μM, read-out: Porcine Smooth Muscle Cell Antiproliferation IC50 or % Inhibition at × Concentration, Serum. As for the experimental part:
as §1, §2, §3, §4, §5, §6, §7

A short description of series [3]: Cytotoxicity, commercial modification of the MTT assay. The series is classed as cell-based, porcine. The following applies: pig, smooth muscle cells, medium without serum, 24 hours at 37° C., no drug = 100% viable. As for the experimental part:
To distinguish cytotoxicity from the ability of a compound to prevent proliferation, the test compounds were examined using a commercial modification of the MTT assay. Briefly, cells were grown in 24 well plates to 70-80% confluency. The cells were serum deprived for 24-48 hours prior to initiation of the experimental protocol. To insure that the MTT assay monitored toxicity rather than proliferation, the cells were incubated with […] test compound in fresh medium without serum for 24 hours at 37° C. in a humidified CO2 incubator. Upon completion of the compound treatment, MTT indicator dye was added for 4 hours at 37° C. Cells were then solubilized and aliquots from each well were transferred to a 96-well plate for analysis. Absorbance at 570 nm wavelength with a reference wavelength of 630 nm was recorded using an ELISA plate reader. Results are reported as percent viable using no drug (100% viable) and pre-solubilization (0% viable) standards.

A word on the viability: it is a read-out of living cells in per cent, often relative to untreated cells. For `COC(=O)c1ccc(CSc2nc3ccccc3[nH]2)cc1` [Example 4, 4-(1H-Benzoimidazol-2-ylsulfanylmethyl)-benzoic acid methyl ester], the results for the IC50 in series [1] and in series [2] were 3.74 µM and 1.53 µM, respectively. In series [3], this compound registered a viability at 24 h of 100%.

On to `Clc1ccc(CSc2nc3ccccc3[nH]2)cc1Cl` [Example 3, 2-(3,4-Dichlorobenzylsulfanyl)-1H-benzoimidazole], for which the IC50 in series [1] amounted to 4.4 µM; in series [2], 12.1 µM. Also, in series [3], the viability at 24 h was determined as 100%.

On to `O=[N+]([O-])c1ccc2[nH]c(SCc3ccc(Cl)c(Cl)c3)nc2c1` [Example 2, 2-(3,4-Dichlorobenzylsulfanyl)-5-nitro-1H-benzoimidazole], for which the values for the IC50 in series [1] and in series [2] were 0.12 to 1 µM and 10 µM, respectively. The compound also gave a viability at 24 h in series [3] of 100%.

As for `COC(=O)c1ccc(CSc2nc3cc([N+](=O)[O-])ccc3[nH]2)cc1` [Example 5, 4-(5-Nitro-1H-benzoimidazol-2-ylsulfanylmethyl)-benzoic acid methyl ester], the figures for the IC50 in series [1] and in series [2] were 6.17 µM and 18.2 µM, respectively. In addition, the viability at 24 h in series [3] was 100%.

With `Fc1cc2[nH]c(SCc3ccc(Cl)c(Cl)c3)nc2cc1Cl` [Example 1, 5(6)-Chloro-2-(3,4-dichlorobenzylsulfanyl)-6(5)-fluoro-1H-benzoimidazole], the results for the IC50 in series [1] and in series [2] were 0.06 to 0.61 µM and 23.3 µM, respectively. This compound also registered a viability at 24 h in series [3] of 100%.
